According to patent publication US12338296B2, “Peptides and compounds that bind to elongation initiation factor 4E” (AGENCY FOR SCIENCE, TECHNOLOGY AND RESEARCH, priority 2019, dated 2025):
Entries after “also recorded” stand apart in the source; their conditions may differ.

Tests used:
[1] = target: T1, eIF4E cap-binding site (Homo sapiens, UniProt P06730); assay: Competitive fluorescence polarization, cap analogue binding assessment (FAM labelled m7GTP); details: eIF4E 250 nM, labelled m7GTP 50 nM; FIG. 1B; listed as EE-02
T1 construct: made in house; Plasmid and cells were provided by Cyclacel Ltd., Dundee
T1 sequence (P06730 whole entry): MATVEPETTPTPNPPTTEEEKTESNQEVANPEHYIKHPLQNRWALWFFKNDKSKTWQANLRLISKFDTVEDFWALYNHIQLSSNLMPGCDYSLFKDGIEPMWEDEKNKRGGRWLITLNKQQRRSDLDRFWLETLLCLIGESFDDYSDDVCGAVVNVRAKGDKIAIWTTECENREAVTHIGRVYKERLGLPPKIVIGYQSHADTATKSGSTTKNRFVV
Method: Apparent Kd values were determined by fitting the experimental data to the equations shown below:
[formula] [L]st and [L]t denote labeled ligand and total unlabeled ligand input concentrations, respectively. Kd2 is the dissociation constant of the interaction between the unlabelled ligand and the protein. In all competitive types of experiments, it is assumed that [P]t>[L]st, otherwise considerable amounts of free labeled ligand would always be present and would interfere with measurements. Kd1 is the apparent Kd for the labeled peptide used in the respective experiment. […] Readings were carried out with a Envision Multi-label Reader (PerkinElmer). Experiments were carried out in PBS (2.7 mM KCl, 137 mM NaCl, 10 mM NaHPO4 and 2 mM KHPO4 (pH 7.4)), 3% DMSO (v/v) and 0.1% Tween 20 buffer. All titrations were carried out in triplicate. Curve-fitting was carried out using Prism 4.0 (GraphPad). […]
From these initial results it was predicted the new peptide motif might interact with eIF4E either via a different binding pose at the eIF4G binding site, or at the cap-binding site or elsewhere on the protein. The binding site was initially delineated on eIF4E by using two types of competitive fluorescence polarization experiments, one of which utilised a FAM labelled cap-analogue and the other that used a FAM labelled eIF4G1 derived peptide (FIG. 1).

[2] = target: T2, eIF4E (Homo sapiens, UniProt P06730); assay: Tryptophan quenching experiments; type: binding; details: 1 μM eIF4E, 0.01-20 μM titrant, excitation 290 nm, emission 355 nm; FIG. 2
T2 construct: made in house; Plasmid and cells were provided by Cyclacel Ltd., Dundee
T2 sequence (P06730 whole entry): as above
Method: Tryptophan Quenching Experiments
Tryptophan quenching experiments were performed using an EnVision® multiplate reader with black matte 96-well plates. […] Concentrations tested ranged from 0.01-20 μM. Samples were excited with UV light at 290 nm to minimise contribution from tyrosine fluorescence. Tryptophan was measured at an emission wavelength of 355 nm.

[3] = target: T2, eIF4E; assay: Fluorescence anisotropy direct titration of eIF4E against FAM labelled tracers; details: 50 nM tracer, eIF4E titrated, 1:1 binding model; read-out: Kd for interaction of labelled tracer with eIF4E
Excerpt: Fluorescence Anisotropy Assays and Kd Determination.
Both were used later for subsequent Kd determination in competition experiments.

Compound | displacement of fluorescently labelled m7GTP from eIF4E [1] | tryptophan quenching of eIF4E [2] | Kd [3]
CSCC[C@@H]1NC(=O)[C@H](CCC(=O)O)NC(=O)[C@@H](NC(=O)[C@H](C)N)CSSC[C@@H](C(=O)NCC(N)=O)NC(=O)[C@H](CC(=O)O)NC(=O)[C@H](CCC(N)=O)NC(=O)[C@H](Cc2ccccc2)NC(=O)[C@H](Cc2ccccc2)NC(=O)CNC1=O [EE-2] | most potent peptide out of the set identified; also recorded: can displace fluorescently labelled m7GTP | significantly different profile to m7GTP/m7GDP | –
m^7GTP-6-FAM | – | – | 149 nM
